Source: ChEMBL document CHEMBL1124372, “Thienothiopyran-2-sulfonamides: novel topically active carbonic anhydrase inhibitors for the treatment of glaucoma” (J Med Chem, 1989)
Where “and” joins values, the source holds several entries; their conditions need not be identical. Equal values may be shown once.

Tests used:
[1] = Binding of 10 phosphate buffer; type: protein assay; details: Bos taurus
[2] = The aqueous solubility in 2% solution was determined; soluble; type: physicochemical; details: buffer
[3] = organism: Oryctolagus cuniculus; experiment: Maximum fall in ocular hypertension in the right eye of albino rabbits; type: functional
[4] = molecular target: T1, Carbonic anhydrase 2 (Homo sapiens, UniProt P00918)
[5] = The aqueous solubility in 2% solution was determined; insoluble; type: physicochemical; details: buffer
[6] = molecular target: T1, Carbonic anhydrase 2; remark: listed apart in the source
[7] = molecular target: T1, Carbonic anhydrase 2; remark: listed apart in the source
[8] = The aqueous solubility in 2% (+ = soluble, - = insoluble) solution was determined; type: physicochemical; details: buffer

Row | Binding [1] | Aqueous solubility [2] | Ki [4] [nM] | Aqueous solubility [5] | IC50 [6] [nM] | IC50 [7] [nM] | Aqueous solubility [8] | SMILES | Activity [3] [mmHg]
1 | 12.3% and 12.8% | – | – | – | – | – | – | CC(C)CN[C@H]1CCS(=O)(=O)c2sc(S(N)(=O)=O)cc21 | –
2 | 1.9% | Soluble | – | – | – | – | – | NS(=O)(=O)c1cc2c(s1)S(=O)(=O)CCC2O (stereo not drawn) | -6.9
3 | 19.8% | – | 1.1 | Insoluble | 1.5 | 9.2 | – | CCCNC1CCS(=O)(=O)c2sc(S(N)(=O)=O)cc21.Cl (stereo not drawn) | -8.7
4 | – | Soluble | – | – | – | – | – | CC(C)CN[C@H]1CCS(=O)(=O)c2sc(S(N)(=O)=O)cc21.Cl [SEZOLAMIDE HYDROCHLORIDE] | -6.5
5 | 25.6% | – | 1.8 | Insoluble | 2.3 | 12.4 | – | CCCCNC1CCS(=O)(=O)c2sc(S(N)(=O)=O)cc21.Cl (stereo not drawn) | -5.7
6 | 32.1% | Soluble | 3.7 | – | 3.2 | 9.2 | – | Cl.NC1CCS(=O)(=O)c2sc(S(N)(=O)=O)cc21 (stereo not drawn) | -3.3
7 | – | Soluble | – | – | – | – | – | CC(C)CN[C@H]1CCS(=O)(=O)c2sc(S(N)(=O)=O)cc21 [SEZOLAMIDE] | -4.3
8 | 9% | Soluble | 9.3 | – | 12.3 | 70 | – | CCN(CC)C1CCS(=O)(=O)c2sc(S(N)(=O)=O)cc21.Cl (stereo not drawn) | -5.3
9 | 23.7% | – | 2.3 | – | 2.5 | 13.9 | Soluble | CNC1CCS(=O)(=O)c2sc(S(N)(=O)=O)cc21.Cl (stereo not drawn) | -3.3
10 | 29.2% | Soluble | – | – | – | – | – | CCNC1CCS(=O)(=O)c2sc(S(N)(=O)=O)cc21.Cl (stereo not drawn) | -4.2
11 | – | Soluble | – | – | – | – | – | CC(C)CN[C@@H]1CCS(=O)(=O)c2sc(S(N)(=O)=O)cc21.Cl | -1.3
